From patent publication US3970648A, “2-[2-(5-Nitro-2-furyl)vinyl]-4-(anilino)quinazolines” (Diamond Shamrock Corporation, priority 1974, dated 1976)

Experiments:
Format in all cases: cell-based
Escherichia coli = assay: Bactericide test, Escherichia coli (agar streak plate)
Excerpt: (§1) Test formulations were examined for bactericidal and/or bacteriostatic activity against the test organisms shown in Tables A and B. These organisms were chosen as being representative of commercially important pathogens affecting animal agriculture. The antibiotic chlortetracycline was chosen as a positive control, since it has a broad spectrum of activity against a large number of organisms, and its activity can be used for comparative purposes.
(§2) Basic test formulations of the product of Examples I, II, III, and of chlortetracycline were prepared by dissolving 16 mg (0.016 g) in 2.0 ml of stock emulsifier solution (0.25% Triton X-155 in acetone by volume) and making each solution up to 50 ml with deionized water. The concentration of the test compound in the basic formulation was 320 ppm. Lower concentrations of the test compound were obtained by diluting the basic formulation with a 4% solution of the stock emulsifier in deionized water so that each dilution in the series differed only in test compound content.
(§3) Nutrient-tryptic soy agar (NTA) consisting of 2.0% Difco Bactoagar 0.8% nutrient broth (Difco), and 0.5% tryptic soy broth (Difco) was prepared and sterilized by autoclaving. A 2 ml aliquot of each test formulation was added to 8 ml of molten NTA. This mixture was then plated in a sterile polystyrene petri dish (100 × 15 mm). After the agar was set, suspensions of each of the test organisms were simultaneously streaked onto the surface of the agar. The inoculated plates were incubated for 48 hr at 28°C. The inhibition of growth of each organism was rated by visual comparison with the organism developing on non-treated agar. Growth inhibition reported as per cent control was rated in three categories as follows: 0% control, growth equivalent to that on non-treated agar; 50% control, sparse development and separated colonies; 100% control, no visible growth or development of colonies.
(§4) Test formulations of the product of Example IV were examined for bactericidal and/or bacteriostatic activity against the test organisms shown in Table B using the Bactericide Test described in Example V. The inhibition of organism growth with each diluted test formulation was rated visually by comparison with the organism developing on a non-treated control agar plate. Growth inhibition reported as per cent control was rated in three categories as follows: 0% control, growth equivalent to that on non-treated agar; 50% control is sparse development and separated colonies; and 100% control, development of individual colonies was not apparent.

Staphylococcus aureus = assay: Bactericide test, Staphylococcus aureus (agar streak plate); details: Staphylococcus aureus
Excerpt: as §1, §2, §3, §4

Streptococcus faecalis = assay: Bactericide test, Streptococcus faecalis (agar streak plate)
Method in brief: (§5)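 Compounds in Triton X-155/acetone emulsifier (basic formulation 320 ppm, diluted serially) were mixed 2:8 into molten nutrient-tryptic soy agar, then organisms streaked on the set plates. After 48 hr at 28°C, growth was scored visually against untreated agar as 0%, 50% (sparse, separated colonies) or 100% control (no visible colonies).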

Salmonella cholerasuis = assay: Bactericide test, Salmonella cholerasuis (agar streak plate); details: Salmonella
Method in brief: as §5

Salmonella gallinarum = assay: Bactericide test, Salmonella gallinarum (agar streak plate); details: Salmonella enterica, GALLINARUM
Method in brief: as §5

[1] = system: Erysipelothrix rhusiopathiae; assay: Bactericide test, Erysipelothrix rhusiopathiae (agar streak plate)
Method in brief: (§6)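 Compounds were formulated with Triton X-155/acetone emulsifier (basic formulation 320 ppm, serially diluted) and mixed 2:8 into molten nutrient-tryptic soy agar. Organisms were streaked onto the plates and incubated 48 hr at 28°C. Growth inhibition was scored visually against untreated agar as 0, 50 or 100% control.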

[2] = system: Bordetella bronchiseptica; assay: Bactericide test, Bordetella bronchiseptica (agar streak plate)
Method in brief: as §6

Salmonella typhimurium = assay: Bactericide test, Salmonella typhimurium (agar streak plate); details: Salmonella enterica, TYPHIMURIUM
Excerpt: as §1, §2, §3

Streptococcus agalactiae = assay: Bactericide test, Streptococcus agalactiae (agar streak plate)
Method in brief: as §6

Streptococcus group E = assay: Bactericide test, Streptococcus group E (agar streak plate)
Method in brief: as §6

Vibrio coli = assay: Bactericide test, Vibrio coli (agar streak plate)
Method in brief: as §6

[3] = 100% inhibition at lower concentrations

O=[N+]([O-])c1ccc(C=Cc2nc(Nc3ccc(O)cc3)c3ccccc3n2)o1 [Example I, 2-[2-(5-nitro-2-furyl)vinyl]-4-(p-hydroxyanilino)quinazoline]
100%: inhibition at 0.125 ppm (Streptococcus faecalis; Enterococcus faecalis, 0.125 ppm) | inhibition at 0.25 ppm (Streptococcus faecalis; Enterococcus faecalis, 0.25 ppm) | inhibition at 0.5 ppm (Streptococcus faecalis; Enterococcus faecalis, 0.5 ppm) | inhibition at 1 ppm (Streptococcus faecalis; Enterococcus faecalis, 1 ppm, read-out: % Inhibition) | inhibition at 2 ppm (Streptococcus faecalis; Enterococcus faecalis, 2 ppm) | inhibition at 4 ppm (Streptococcus faecalis; Enterococcus faecalis, 4 ppm, read-out: % Inhibition) | inhibition at 8 ppm (Streptococcus faecalis; Enterococcus faecalis, 8 ppm) | inhibition at 16 ppm (Streptococcus faecalis; Enterococcus faecalis, 16 ppm, read-out: % Inhibition) | inhibition at 32 ppm (Streptococcus faecalis; Enterococcus faecalis, 32 ppm) | inhibition at 64 ppm (Streptococcus faecalis; Enterococcus faecalis, 64 ppm, read-out: % Inhibition) | inhibition at 0.125 ppm ([1]; Erysipelothrix rhusiopathiae, 0.125 ppm) | inhibition at 0.25 ppm ([1]; Erysipelothrix rhusiopathiae, 0.25 ppm) | inhibition at 0.5 ppm ([1]; Erysipelothrix rhusiopathiae, 0.5 ppm) | inhibition at 1 ppm ([1]; Erysipelothrix rhusiopathiae, 1 ppm) | inhibition at 2 ppm ([1]; Erysipelothrix rhusiopathiae, 2 ppm) | inhibition at 4 ppm ([1]; Erysipelothrix rhusiopathiae, 4 ppm) | inhibition at 8 ppm ([1]; Erysipelothrix rhusiopathiae, 8 ppm) | inhibition at 16 ppm ([1]; Erysipelothrix rhusiopathiae, 16 ppm) | inhibition at 32 ppm ([1]; Erysipelothrix rhusiopathiae, 32 ppm) | inhibition at 64 ppm ([1]; Erysipelothrix rhusiopathiae, 64 ppm) | inhibition at 0.125 ppm ([2]; Bordetella bronchiseptica, 0.125 ppm) | inhibition at 0.25 ppm ([2]; Bordetella bronchiseptica, 0.25 ppm) | inhibition at 0.5 ppm ([2]; Bordetella bronchiseptica, 0.5 ppm) | inhibition at 1 ppm ([2]; Bordetella bronchiseptica, 1 ppm, read-out: % Inhibition) | inhibition at 2 ppm ([2]; Bordetella bronchiseptica, 2 ppm) | inhibition at 4 ppm ([2]; Bordetella bronchiseptica, 4 ppm, read-out: % Inhibition) | inhibition at 8 ppm ([2]; Bordetella bronchiseptica, 8 ppm) | inhibition at 16 ppm ([2]; Bordetella bronchiseptica, 16 ppm, read-out: % Inhibition) | inhibition at 32 ppm ([2]; Bordetella bronchiseptica, 32 ppm) | inhibition at 64 ppm ([2]; Bordetella bronchiseptica, 64 ppm, read-out: % Inhibition) | inhibition at 0.125 ppm (Streptococcus agalactiae; Streptococcus agalactiae, 0.125 ppm) | inhibition at 0.25 ppm (Streptococcus agalactiae; Streptococcus agalactiae, 0.25 ppm) | inhibition at 0.5 ppm (Streptococcus agalactiae; Streptococcus agalactiae, 0.5 ppm) | inhibition at 1 ppm (Streptococcus agalactiae; Streptococcus agalactiae, 1 ppm, read-out: % Inhibition) | inhibition at 2 ppm (Streptococcus agalactiae; Streptococcus agalactiae, 2 ppm) | inhibition at 4 ppm (Streptococcus agalactiae; Streptococcus agalactiae, 4 ppm, read-out: % Inhibition) | inhibition at 8 ppm (Streptococcus agalactiae; Streptococcus agalactiae, 8 ppm) | inhibition at 16 ppm (Streptococcus agalactiae; Streptococcus agalactiae, 16 ppm, read-out: % Inhibition) | inhibition at 32 ppm (Streptococcus agalactiae; Streptococcus agalactiae, 32 ppm) | inhibition at 64 ppm (Streptococcus agalactiae; Streptococcus agalactiae, 64 ppm, read-out: % Inhibition) | inhibition at 0.125 ppm (Streptococcus group E; 0.125 ppm) | inhibition at 0.25 ppm (Streptococcus group E; 0.25 ppm) | inhibition at 0.5 ppm (Streptococcus group E; 0.5 ppm) | inhibition at 1 ppm (Streptococcus group E; 1 ppm, read-out: % Inhibition) | inhibition at 2 ppm (Streptococcus group E; 2 ppm) | inhibition at 4 ppm (Streptococcus group E; 4 ppm, read-out: % Inhibition) | inhibition at 8 ppm (Streptococcus group E; 8 ppm) | inhibition at 16 ppm (Streptococcus group E; 16 ppm, read-out: % Inhibition) | inhibition at 32 ppm (Streptococcus group E; 32 ppm) | inhibition at 64 ppm (Streptococcus group E; 64 ppm, read-out: % Inhibition) | inhibition at 0.125 ppm (Vibrio coli; Campylobacter coli, 0.125 ppm) | inhibition at 0.25 ppm (Vibrio coli; Campylobacter coli, 0.25 ppm) | inhibition at 0.5 ppm (Vibrio coli; Campylobacter coli, 0.5 ppm) | inhibition at 1 ppm (Vibrio coli; Campylobacter coli, 1 ppm) | inhibition at 2 ppm (Vibrio coli; Campylobacter coli, 2 ppm) | inhibition at 4 ppm (Vibrio coli; Campylobacter coli, 4 ppm) | inhibition at 8 ppm (Vibrio coli; Campylobacter coli, 8 ppm) | inhibition at 16 ppm (Vibrio coli; Campylobacter coli, 16 ppm) | inhibition at 32 ppm (Vibrio coli; Campylobacter coli, 32 ppm) | inhibition at 64 ppm (Vibrio coli; Campylobacter coli, 64 ppm)
0%: inhibition at 0.125 ppm (Escherichia coli; 0.125 ppm) | inhibition at 0.25 ppm (Escherichia coli; 0.25 ppm) | inhibition at 0.5 ppm (Escherichia coli; 0.5 ppm) | inhibition at 1 ppm (Escherichia coli; 1 ppm, read-out: % Inhibition) | inhibition at 2 ppm (Escherichia coli; 2 ppm) | inhibition at 4 ppm (Escherichia coli; 4 ppm, read-out: % Inhibition) | inhibition at 8 ppm (Escherichia coli; 8 ppm) | inhibition at 16 ppm (Escherichia coli; 16 ppm, read-out: % Inhibition) | inhibition at 32 ppm (Escherichia coli; 32 ppm) | inhibition at 64 ppm (Escherichia coli; 64 ppm, read-out: % Inhibition) | inhibition at 0.125 ppm (Staphylococcus aureus; 0.125 ppm) | inhibition at 0.25 ppm (Staphylococcus aureus; 0.25 ppm) | inhibition at 0.5 ppm (Staphylococcus aureus; 0.5 ppm) | inhibition at 1 ppm (Staphylococcus aureus; 1 ppm, read-out: % Inhibition) | inhibition at 2 ppm (Staphylococcus aureus; 2 ppm) | inhibition at 4 ppm (Staphylococcus aureus; 4 ppm, read-out: % Inhibition) | inhibition at 8 ppm (Staphylococcus aureus; 8 ppm) | inhibition at 16 ppm (Staphylococcus aureus; 16 ppm, read-out: % Inhibition) | inhibition at 32 ppm (Staphylococcus aureus; 32 ppm) | inhibition at 64 ppm (Staphylococcus aureus; 64 ppm, read-out: % Inhibition) | inhibition at 0.125 ppm (Salmonella cholerasuis; 0.125 ppm) | inhibition at 0.25 ppm (Salmonella cholerasuis; 0.25 ppm) | inhibition at 0.5 ppm (Salmonella cholerasuis; 0.5 ppm) | inhibition at 1 ppm (Salmonella cholerasuis; 1 ppm, read-out: % Inhibition) | inhibition at 2 ppm (Salmonella cholerasuis; 2 ppm) | inhibition at 4 ppm (Salmonella cholerasuis; 4 ppm, read-out: % Inhibition) | inhibition at 8 ppm (Salmonella cholerasuis; 8 ppm) | inhibition at 16 ppm (Salmonella cholerasuis; 16 ppm, read-out: % Inhibition) | inhibition at 32 ppm (Salmonella cholerasuis; 32 ppm) | inhibition at 64 ppm (Salmonella cholerasuis; 64 ppm, read-out: % Inhibition) | inhibition at 0.125 ppm (Salmonella gallinarum; 0.125 ppm) | inhibition at 0.25 ppm (Salmonella gallinarum; 0.25 ppm) | inhibition at 0.5 ppm (Salmonella gallinarum; 0.5 ppm) | inhibition at 1 ppm (Salmonella gallinarum; 1 ppm) | inhibition at 2 ppm (Salmonella gallinarum; 2 ppm) | inhibition at 4 ppm (Salmonella gallinarum; 4 ppm) | inhibition at 8 ppm (Salmonella gallinarum; 8 ppm) | inhibition at 16 ppm (Salmonella gallinarum; 16 ppm) | inhibition at 32 ppm (Salmonella gallinarum; 32 ppm) | inhibition at 64 ppm (Salmonella gallinarum; 64 ppm) | inhibition at 0.125 ppm (Salmonella typhimurium; 0.125 ppm) | inhibition at 0.25 ppm (Salmonella typhimurium; 0.25 ppm) | inhibition at 0.5 ppm (Salmonella typhimurium; 0.5 ppm) | inhibition at 1 ppm (Salmonella typhimurium; 1 ppm, read-out: % Inhibition) | inhibition at 2 ppm (Salmonella typhimurium; 2 ppm) | inhibition at 4 ppm (Salmonella typhimurium; 4 ppm, read-out: % Inhibition) | inhibition at 8 ppm (Salmonella typhimurium; 8 ppm) | inhibition at 16 ppm (Salmonella typhimurium; 16 ppm, read-out: % Inhibition) | inhibition at 32 ppm (Salmonella typhimurium; 32 ppm) | inhibition at 64 ppm (Salmonella typhimurium; 64 ppm, read-out: % Inhibition)
considerably more effective: effectiveness compared with chlortetracycline (in words) (Streptococcus faecalis; [3]) | effectiveness compared with chlortetracycline (in words) [1, 3] | effectiveness compared with chlortetracycline (in words) [2, 3] | effectiveness compared with chlortetracycline (in words) (Streptococcus agalactiae; [3]) | effectiveness compared with chlortetracycline (in words) (Streptococcus group E; [3]) | effectiveness compared with chlortetracycline (in words) (Vibrio coli; [3])
